Source: patent US20260325538A1, “THERAPY” (priority 2023, published 2026)

Assays:
[1] = system: Acinetobacter baumannii ST15 (NDM-1 OXA-51, ADC-263); test: Checkerboard MIC, fixed concentration of sBLI (Examples 11-17); type: cell-based
From the text: The antibiotics and serine β-lactamase-inhibitors (sBLIs) were purchased from the following suppliers: Ceftazidime (CAZ): Sigma-Aldrich; Cefepime (FEP): Sigma-Aldrich; Cefpodoxime (CEFP): MedChemExpress; Sulbactam (SUL): Sigma-Aldrich Avibactam (AVI): Biosynth; Vaborbactam (VAB): ABCR; Tazobactam (TAZ): Sigma-Aldrich; Taniborbactam (TAN): Sigma-Aldrich.
In each of Examples 3-23, the compound of Example 26 of WO 2018/033719 was employed as the zinc chelator. The following abbreviations are used in these examples: sBLI means serine-β-lactamase inhibitor; CFU means colony-forming unit, which is a group of microbes that grows from a single cell on a petri plate; DMSO means dimethyl sulfoxide; MHB means Mueller-Hinton broth; caMHB means cation-adjusted Mueller-Hinton broth; MIC means minimum inhibitory concentration—the lower the MIC, the more efficient the combination against the respective bacterial strain.
General Protocol 2 Used in Examples 11-23 Employing a Fixed Concentration of sBLI within Each Experiment:
Antimicrobial susceptibility testing (AST) by broth microdilution (MIC determination) was performed according to The European Committee on Antimicrobial Susceptibility Testing (EUCAST) guidelines (see Reading guide for broth microdilution Version 5.0, 2024: https://www.eucast.org).
Sterile clear round bottom polystyrene (non-treated) 96-well microplates (Corning 3788) were used for making serial two-fold dilutions of the antibiotic in cation-adjusted Mueller Hinton II broth (caMHB; Thermo Scientific, T3462, containing 29.4 μM Zn^2+ or MILLIPORE, 90922-500G, containing 5.6 μM Zn^2+), across the columns of the microtiter plate (128-0.06 μg/mL; columns 1-12).
The checkerboard plates were all modified by adding a serine β-lactamase inhibitor (sBLI) at a fixed concentration of 16 μg/mL. Additionally, the zinc chelator was added at various fixed concentrations. Samples were mixed so that all plates contained a control containing antibiotic alone (no sBLI, no zinc chelator), a sample containing antibiotic and sBLI (double combination; no zinc chelator), and a sample containing antibiotic, sBLI and zinc chelator (triple combination). All test wells used in each plate contained growth medium (caMHB), and inoculated bacteria at a final inoculum between 3-7×10^5 CFU/mL. […] Synergy for the triple combination (antibiotic, sBLI, and zinc chelator) was defined as when the MIC in any of the rows containing the zinc chelator in combination with antibiotic and sBLI (triple combination), was lower than for antibiotic alone and lower than for the antibiotic and sBLI double combination.
(§1) An X in rows 1-4 in the table indicates growth of the bacterial inoculum, while a blank cell indicates no growth. Concentrations (μg/mL) of FEP are given in row 0. AVI and the zinc chelator were added in fixed concentrations (AVI at 16 μg/mL in rows 2-4, zinc chelator at 16 μg/mL in row 3 and at 8 μg/mL in row 4). As a control, the effect of FEP alone was tested (row 1). All wells contained bacterial growth medium (caMHB, 29.4 μM Zn^2+) and were inoculated with the test bacterium. The grey cells indicate the FEP MIC.
as §1, with “SUL” for “AVI”, “(SUL” for “(AVI”
An X in rows 1-4 in the table indicates growth of the bacterial inoculum, while a blank cell indicates no growth. Concentrations (μg/mL) of FEP are given in row 0. TAZ and the zinc chelator were added in fixed concentrations (TAZ at 16 μg/mL in rows 2-4, zinc chelator at 16 μg/mL in row 3 and at 8 μg/mL in row 4). […]

[2] = system: gram-negative bacteria with MBL, for example Klebsiella pneumoniae, E. coli and Pseudomonas aeruginosa; conditions: in combination with meropenem; cited from earlier work

Q: Which “synergy with the zinc chelator” value ([1]; zinc chelator 4 μg/mL, with CEFP and SUL 16 μg/mL, caMHB 5.6 μM Zn2+) does the source give for CN(C[C@H](O)[C@@H](O)[C@H](O)[C@H](O)CO)C(=O)c1ccc(CN(Cc2ccccn2)Cc2ccccn2)nc1 [zinc chelator] here?
A: Synergy

Q: And the “synergy with the zinc chelator” value ([1]; zinc chelator 4 μg/mL, with FEP and AVI 16 μg/mL, caMHB 5.6 μM Zn2+)?
A: Synergy

Q: And the “synergy with the zinc chelator” value ([1]; zinc chelator 8 μg/mL, with CEFP and SUL 16 μg/mL, caMHB 5.6 μM Zn2+)?
A: Synergy

Q: And the “synergy with the zinc chelator” value ([1]; zinc chelator 8 μg/mL, with FEP and AVI 16 μg/mL, caMHB 5.6 μM Zn2+)?
A: Synergy

Q: What about the “synergy with the zinc chelator” value ([1]; zinc chelator 8 μg/mL, with FEP and AVI 16 μg/mL, caMHB 29.4 μM Zn2+) of the same compound?
A: Synergy

Q: And the “synergy with the zinc chelator” value ([1]; zinc chelator 8 μg/mL, with FEP and SUL 16 μg/mL, caMHB 29.4 μM Zn2+)?
A: Synergy

Q: And the “synergy with the zinc chelator” value ([1]; zinc chelator 8 μg/mL, with FEP and TAZ 16 μg/mL, caMHB 5.6 μM Zn2+)?
A: Synergy

Q: What about the “synergy with the zinc chelator” value ([1]; zinc chelator 8 μg/mL, with FEP and TAZ 16 μg/mL, caMHB 29.4 μM Zn2+) of the same compound?
A: Synergy

Q: And the “synergy with the zinc chelator” value ([1]; zinc chelator 16 μg/mL, with CEFP and SUL 16 μg/mL, caMHB 5.6 μM Zn2+)?
A: Synergy

Q: What about the “synergy with the zinc chelator” value ([1]; zinc chelator 16 μg/mL, with CEFP and SUL 16 μg/mL, caMHB 29.4 μM Zn2+) of the same compound?
A: Synergy

Q: And the “synergy with the zinc chelator” value ([1]; zinc chelator 16 μg/mL, with FEP and AVI 16 μg/mL, caMHB 29.4 μM Zn2+)?
A: Synergy

Q: And the “synergy with the zinc chelator” value ([1]; zinc chelator 16 μg/mL, with FEP and SUL 16 μg/mL, caMHB 29.4 μM Zn2+)?
A: Synergy

Q: And the “synergy with the zinc chelator” value ([1]; zinc chelator 16 μg/mL, with FEP and TAZ 16 μg/mL, caMHB 5.6 μM Zn2+)?
A: Synergy

Q: And the “synergy with the zinc chelator” value ([1]; zinc chelator 16 μg/mL, with FEP and TAZ 16 μg/mL, caMHB 29.4 μM Zn2+)?
A: Synergy

Q: And the “sensitivity of gram-negative bacteria with MBL to meropenem” value [2]?
A: the sensitivity of these bacteria towards the antibiotic drug is reinstated
